Laboratory results: patent publication US20190309272A1, “Genetically Modified Cell Lines Including a TP53 Modification and Methods of Use” (UNIVERSITY OF SOUTH CAROLINA, priority 2018, published 2019)
Where a name gives a salt, the structure may show the parent alone. Read-outs that look alike come from different tables or passages of the source. Starred links: 1 amine or outer side, 2 acyl side, 3 side chain; linkers in the order of their positions; H or OH if unused. Positions of bridges follow the written chain, without caps; N, C: chain ends. Non-standard residues stand in square brackets, D forms with d. Residues, ends and D or L forms follow the SMILES beside them. Chains are numbered I, II in the order given. Actinocin(9to1) = Cc1c2oc3c(C)ccc(C(=O)[*:1])c3nc-2c(C(=O)[*:2])c(N)c1=O; NMeV = CN[C@H](C(=O)O)C(C)C; Sar = CNCC(=O)O

Columns and labels:
Type in all cases: cell-based, Human
MCF7 TP53 KO 5.6 pool = assay: Drug screening, resazurin, TP53 KO 5.6 pool
MCF7 TP53 KO 3.4 pool = assay: Drug screening, resazurin, TP53 KO 3.4 pool
MCF7 WT Parental pool = assay: Drug screening, resazurin, MCF7 wild type parental pool
[1] = ten-day drug treatment, 156.25 nM to 10 μM, resazurin fluorescence

Row | Compound | TP53 KO 5.6 pool (AUC) (MCF7 TP53 KO 5.6 pool; [1]) | TP53 KO 3.4 pool (AUC) (MCF7 TP53 KO 3.4 pool; [1]) | MCF7 WT Parental pool (AUC) (MCF7 WT Parental pool; [1]) | TP53 KO 5.6 pool (AUC) (MCF7 TP53 KO 5.6 pool) | TP53 KO 3.4 pool (AUC) (MCF7 TP53 KO 3.4 pool) | MCF7 WT Parental pool (AUC) (MCF7 WT Parental pool)
1 | Nc1nc(Cl)nc2c1ncn2[C@H]1C[C@H](O)[C@@H](CO)O1 [Cladribine] | 3.956 | 3.767 | 5.569 |  |  | 
2 | Nc1nc(Cl)nc2c1ncn2[C@@H]1O[C@H](CO)[C@@H](O)[C@@H]1F [Clofarabine] | 3.74 | 3.085 | 5.232 |  |  | 
3 | CC1=C2C[C@H]3[C@@H](CC=C4C[C@@H](O)CC[C@@]43C)[C@@H]2CC[C@]12O[C@@H]1C[C@H](C)CN[C@H]1[C@H]2C [Clyclopamine] | 9.093 | 9.033 | 9.488 |  |  | 
4 | O=C(c1ccc(F)c(F)c1Nc1ccc(I)cc1F)N1CC(O)([C@@H]2CCCCN2)C1 [Cobimetinib] | 8.041 | 4.851 | 7.621 |  |  | 
5 | C[C@@H](Oc1cc(-c2cnn(C3CCNCC3)c2)cnc1N)c1c(Cl)ccc(F)c1Cl [Crizotinib] | 2.941 | 2.325 | 2.549 |  |  | 
6 | O=P1(N(CCCl)CCCl)NCCCO1 (stereo not shown) [Cyclophosphamide] |  |  |  | 16.92 | 15.2 | 16.16
7 | Nc1ccn([C@@H]2O[C@H](CO)[C@@H](O)[C@@H]2O)c(=O)n1 [Cytarabine Hydrochloride] |  |  | 4.771 |  |  | 
8 | Cc1c2oc3c(C)ccc(C(=O)N[C@@H]4C(=O)N[C@H](C(C)C)C(=O)N5CCC[C@H]5C(=O)N(C)CC(=O)N(C)[C@@H](C(C)C)C(=O)O[C@@H]4C)c3nc-2c(C(=O)N[C@@H]2C(=O)N[C@H](C(C)C)C(=O)N3CCC[C@H]3C(=O)N(C)CC(=O)N(C)[C@@H](C(C)C)C(=O)O[C@@H]2C)c(N)c1=O [Dactinomycin] (I: T[dV]P[Sar][NMeV] / II: T[dV]P[Sar][NMeV]; ester I:1-I:C, II:1-II:C; linker I:N-II:N via Actinocin(9to1)) | 1.65 | 1.588 | 2.01 |  |  | 
9 | Cc1nc(Nc2ncc(C(=O)Nc3c(C)cccc3Cl)s2)cc(N2CCN(CCO)CC2)n1 [Dasatinib] | 4.43 | 4.014 | 4.282 |  |  | 
10 | C[C@@H](CN1CC(=O)NC(=O)C1)N1CC(=O)NC(=O)C1 [Dexrazoxane] | 8.868 | 8.753 | 8.317 |  |  | 
11 | CC(=O)O[C@@]12CO[C@@H]1C[C@H](O)[C@@]1(C)C(=O)[C@H](O)C3=C(C)[C@@H](OC(=O)[C@H](O)[C@@H](NC(=O)OC(C)(C)C)c4ccccc4)C[C@@](O)([C@@H](OC(=O)c4ccccc4)[C@H]21)C3(C)C [Docetaxel] | 1.663 | 1.639 | 1.432 |  |  | 
12 | COc1cccc2c1C(=O)c1c(O)c3c(c(O)c1C2=O)C[C@@](O)(C(=O)CO)C[C@@H]3O[C@H]1C[C@H](N)[C@H](O)[C@H](C)O1 [Doxorubicin Hydrochloride] |  |  | 0.9435 | 1.009 | 0.9013 | 
13 | CNC(=O)c1ccc(N2C(=S)N(c3ccc(C#N)c(C(F)(F)F)c3)C(=O)C2(C)C)cc1F [Enzalutamide] | 8.634 | 8.864 | 8.931 |  |  | 
14 | COc1cccc2c1C(=O)c1c(O)c3c(c(O)c1C2=O)C[C@@](O)(C(=O)CO)C[C@@H]3O[C@H]1C[C@H](N)[C@@H](O)[C@H](C)O1 [Epirubicin Hydrochloride] |  |  | 0.8944 | 1.019 | 0.9399 | 
15 | Cc1c(C(=O)Nc2ccc(N3C[C@@H](C)O[C@@H](C)C3)nc2)cccc1-c1ccc(OC(F)(F)F)cc1 [Erismodgib] | 7.491 | 6.922 | 7.435 |  |  | 
16 | C=C1C[C@@H]2[C@H](CC[C@]3(C)C(=O)CC[C@@H]23)[C@@]2(C)C=CC(=O)C=C12 [Exemestane] |  |  | 8.564 |  |  | 
17 | CC(=O)[C@]1(O)Cc2c(O)c3c(c(O)c2[C@@H](O[C@H]2C[C@H](N)[C@H](O)[C@H](C)O2)C1)C(=O)c1ccccc1C3=O [Idarubicin Hydrochloride] |  |  | 0.958 |  |  | 
18 | O=C1c2c(O)ccc(O)c2C(=O)c2c(NCCNCCO)ccc(NCCNCCO)c21 [Mitoxantrone] |  |  | 2.338 |  |  | 
19 | OC[C@H]1O[C@@H](n2cnc3c2NC=NC[C@H]3O)C[C@@H]1O [Pentostatin] |  |  | 10.31 |  |  | 
20 | CNC(=O)c1cc(Oc2ccc(NC(=O)Nc3ccc(Cl)c(C(F)(F)F)c3)cc2)ccn1 [Sorafenib] |  |  | 3.981 |  |  | 
21 | CO[C@H]1C[C@@H]2CC[C@@H](C)[C@@](O)(O2)C(=O)C(=O)N2CCCC[C@H]2C(=O)O[C@H]([C@H](C)C[C@@H]2CC[C@@H](OC(=O)C(C)(CO)CO)[C@H](OC)C2)CC(=O)[C@H](C)/C=C(\C)[C@@H](O)[C@@H](OC)C(=O)[C@H](C)C[C@H](C)/C=C/C=C/C=C/1C [Temsirolimus] |  |  | 2.486 |  |  | 
22 | Nc1nc2nc[nH]c2c(=S)[nH]1 [Thioguanine] |  |  | 4.122 |  |  | 
23 | Dabrafenib Mesylate |  | 14.73 | 14.9 |  |  | 
